Experimental data: ChEMBL document CHEMBL1148695, “Synthesis and biological activity of nociceptin/orphanin FQ analogues substituted in position 7 or 11 with Calpha,alpha-dialkylated amino acids” (Bioorg Med Chem, 2007)
Several values for one entry are separate records, joined by “and”; a condition that tells them apart may be missing. Equal values may be shown once.

Assays:
[1] = target: Nociceptin receptor (Mus musculus) (UniProt P35377); assay: (§1) Agonist activity at NOP receptor in Swiss mouse vas deferens assessed as effect on electrically stimulated contractions; format: functional, tissue-based
Nociceptin receptor = Nociceptin receptor (Mus musculus, UniProt P35377); assay: as §1; format: functional, tissue-based
Nociceptin receptor, sequence (P35377 whole entry): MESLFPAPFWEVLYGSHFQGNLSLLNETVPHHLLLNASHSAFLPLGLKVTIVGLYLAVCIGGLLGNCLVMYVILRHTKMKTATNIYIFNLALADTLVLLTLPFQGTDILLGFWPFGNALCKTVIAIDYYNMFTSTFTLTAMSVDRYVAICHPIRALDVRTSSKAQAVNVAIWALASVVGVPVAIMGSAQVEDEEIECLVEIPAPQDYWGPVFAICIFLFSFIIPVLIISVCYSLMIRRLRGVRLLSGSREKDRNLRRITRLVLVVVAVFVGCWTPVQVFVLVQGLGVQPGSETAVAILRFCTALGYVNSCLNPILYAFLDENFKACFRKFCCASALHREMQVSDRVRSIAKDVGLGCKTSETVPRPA

Nociceptin receptor (Mus musculus), sequence (P35377 whole entry): as above

Structure (SMILES)	Emax [1]	EC50 (Nociceptin receptor) [nM]
CC(C)C[C@H](NC(=O)[C@H](CCCCN)NC(=O)[C@H](CCCNC(=N)N)NC(=O)[C@H](C)NC(=O)[C@H](CO)NC(=O)[C@H](CCCCN)NC(=O)[C@H](CCCNC(=N)N)NC(=O)C(C)(C)NC(=O)CNC(=O)[C@@H](NC(=O)[C@H](Cc1ccccc1)NC(=O)CNC(=O)CNC(=O)[C@@H](N)Cc1ccccc1)[C@@H](C)O)C(=O)N[C@@H](C)C(=O)N[C@@H](CC(N)=O)C(=O)N[C@@H](CCC(N)=O)C(N)=O	96%	4.47
CC(C)C[C@H](NC(=O)[C@H](CCCCN)NC(=O)[C@H](CCCNC(=N)N)NC(=O)[C@H](C)NC(=O)[C@H](CO)NC(=O)[C@H](CCCCN)NC(=O)[C@H](CCCNC(=N)N)NC(=O)C1(NC(=O)CNC(=O)[C@@H](NC(=O)[C@H](Cc2ccccc2)NC(=O)CNC(=O)CNC(=O)[C@@H](N)Cc2ccccc2)[C@@H](C)O)CCCC1)C(=O)N[C@@H](C)C(=O)N[C@@H](CC(N)=O)C(=O)N[C@@H](CCC(N)=O)C(N)=O	98%	25.1
CC(C)C[C@H](NC(=O)[C@H](CCCCN)NC(=O)[C@H](CCCNC(=N)N)NC(=O)[C@H](C)NC(=O)[C@H](CO)NC(=O)[C@H](CCCCN)NC(=O)[C@H](CCCNC(=N)N)NC(=O)C1(NC(=O)CNC(=O)[C@@H](NC(=O)[C@H](Cc2ccccc2)NC(=O)CNC(=O)CNC(=O)[C@@H](N)Cc2ccccc2)[C@@H](C)O)CC1)C(=O)N[C@@H](C)C(=O)N[C@@H](CC(N)=O)C(=O)N[C@@H](CCC(N)=O)C(N)=O	7.08%	83.2
CC(C)C[C@H](NC(=O)[C@H](CCCCN)NC(=O)[C@H](CCCNC(=N)N)NC(=O)[C@H](C)NC(=O)[C@H](CO)NC(=O)[C@H](CCCCN)NC(=O)[C@H](CCCNC(=N)N)NC(=O)C(C)(NC(=O)CNC(=O)[C@@H](NC(=O)[C@H](Cc1ccccc1)NC(=O)CNC(=O)CNC(=O)[C@@H](N)Cc1ccccc1)[C@@H](C)O)C(C)C)C(=O)N[C@@H](C)C(=O)N[C@@H](CC(N)=O)C(=O)N[C@@H](CCC(N)=O)C(N)=O (some centres undefined) [listing 1 of 2 here]		55
CCC(C)(NC(=O)[C@H](CO)NC(=O)[C@H](CCCCN)NC(=O)[C@H](CCCNC(=N)N)NC(=O)[C@H](C)NC(=O)CNC(=O)[C@@H](NC(=O)[C@H](Cc1ccccc1)NC(=O)CNC(=O)CNC(=O)[C@@H](N)Cc1ccccc1)[C@@H](C)O)C(=O)N[C@@H](CCCNC(=N)N)C(=O)N[C@@H](CCCCN)C(=O)N[C@@H](CC(C)C)C(=O)N[C@@H](C)C(=O)N[C@@H](CC(N)=O)C(=O)N[C@@H](CCC(N)=O)C(N)=O (some centres undefined)	90%	
CC(C)C[C@H](NC(=O)[C@H](CCCCN)NC(=O)[C@H](CCCNC(=N)N)NC(=O)[C@H](C)NC(=O)[C@H](CO)NC(=O)[C@H](CCCCN)NC(=O)[C@H](CCCNC(=N)N)NC(=O)C(C)(NC(=O)CNC(=O)[C@@H](NC(=O)[C@H](Cc1ccccc1)NC(=O)CNC(=O)CNC(=O)[C@@H](N)Cc1ccccc1)[C@H](C)O)C(C)C)C(=O)N[C@@H](C)C(=O)N[C@@H](CC(N)=O)C(=O)N[C@@H](CCC(N)=O)C(N)=O (some centres undefined)	88% and 95%	
CC(C)C[C@H](NC(=O)[C@H](CCCCN)NC(=O)[C@H](CCCNC(=N)N)NC(=O)C(C)(NC(=O)[C@H](CO)NC(=O)[C@H](CCCCN)NC(=O)[C@H](CCCNC(=N)N)NC(=O)[C@H](C)NC(=O)CNC(=O)[C@@H](NC(=O)[C@H](Cc1ccccc1)NC(=O)CNC(=O)CNC(=O)[C@@H](N)Cc1ccccc1)[C@@H](C)O)C(C)C)C(=O)N[C@@H](C)C(=O)N[C@@H](CC(N)=O)C(=O)N[C@@H](CCC(N)=O)C(N)=O (some centres undefined) [listing 1 of 3 here]		14.8
CCC(CC)(NC(=O)CNC(=O)[C@@H](NC(=O)[C@H](Cc1ccccc1)NC(=O)CNC(=O)CNC(=O)[C@@H](N)Cc1ccccc1)[C@@H](C)O)C(=O)N[C@@H](CCCNC(=N)N)C(=O)N[C@@H](CCCCN)C(=O)N[C@@H](CO)C(=O)N[C@@H](C)C(=O)N[C@@H](CCCNC(=N)N)C(=O)N[C@@H](CCCCN)C(=O)N[C@@H](CC(C)C)C(=O)N[C@@H](C)C(=O)N[C@@H](CC(N)=O)C(=O)N[C@@H](CCC(N)=O)C(N)=O	89%	12.3
CC(C)C[C@H](NC(=O)[C@H](CCCCN)NC(=O)[C@H](CCCNC(=N)N)NC(=O)[C@H](C)NC(=O)[C@H](CO)NC(=O)[C@H](CCCCN)NC(=O)[C@H](CCCNC(=N)N)NC(=O)C(C)(CC(C)C)NC(=O)CNC(=O)[C@@H](NC(=O)[C@H](Cc1ccccc1)NC(=O)CNC(=O)CNC(=O)[C@@H](N)Cc1ccccc1)[C@@H](C)O)C(=O)N[C@@H](C)C(=O)N[C@@H](CC(N)=O)C(=O)N[C@@H](CCC(N)=O)C(N)=O (some centres undefined) [listing 1 of 2 here]		46.8
CC(C)C[C@H](NC(=O)[C@H](CCCCN)NC(=O)[C@H](CCCNC(=N)N)NC(=O)C1(NC(=O)[C@H](CO)NC(=O)[C@H](CCCCN)NC(=O)[C@H](CCCNC(=N)N)NC(=O)[C@H](C)NC(=O)CNC(=O)[C@@H](NC(=O)[C@H](Cc2ccccc2)NC(=O)CNC(=O)CNC(=O)[C@@H](N)Cc2ccccc2)[C@@H](C)O)CC1)C(=O)N[C@@H](C)C(=O)N[C@@H](CC(N)=O)C(=O)N[C@@H](CCC(N)=O)C(N)=O	91%	16.6
CC(C)C[C@H](NC(=O)[C@H](CCCCN)NC(=O)[C@H](CCCNC(=N)N)NC(=O)C(C)(C)NC(=O)[C@H](CO)NC(=O)[C@H](CCCCN)NC(=O)[C@H](CCCNC(=N)N)NC(=O)[C@H](C)NC(=O)CNC(=O)[C@@H](NC(=O)[C@H](Cc1ccccc1)NC(=O)CNC(=O)CNC(=O)[C@@H](N)Cc1ccccc1)[C@@H](C)O)C(=O)N[C@@H](C)C(=O)N[C@@H](CC(N)=O)C(=O)N[C@@H](CCC(N)=O)C(N)=O	91%	8.91
CC(C)C[C@H](NC(=O)[C@H](CCCCN)NC(=O)[C@H](CCCNC(=N)N)NC(=O)C1(NC(=O)[C@H](CO)NC(=O)[C@H](CCCCN)NC(=O)[C@H](CCCNC(=N)N)NC(=O)[C@H](C)NC(=O)CNC(=O)[C@@H](NC(=O)[C@H](Cc2ccccc2)NC(=O)CNC(=O)CNC(=O)[C@@H](N)Cc2ccccc2)[C@@H](C)O)CCCC1)C(=O)N[C@@H](C)C(=O)N[C@@H](CC(N)=O)C(=O)N[C@@H](CCC(N)=O)C(N)=O	89%	8.32
CC(C)C[C@H](NC(=O)[C@H](CCCCN)NC(=O)[C@H](CCCNC(=N)N)NC(=O)[C@H](C)NC(=O)[C@H](CO)NC(=O)[C@H](CCCCN)NC(=O)[C@H](CCCNC(=N)N)NC(=O)C(C)(CC(C)C)NC(=O)CNC(=O)[C@@H](NC(=O)[C@H](Cc1ccccc1)NC(=O)CNC(=O)CNC(=O)[C@@H](N)Cc1ccccc1)[C@@H](C)O)C(=O)N[C@@H](C)C(=O)N[C@@H](CC(N)=O)C(=O)N[C@@H](CCC(N)=O)C(N)=O (some centres undefined) [listing 2 of 2 here]		75.9
CC[C@](C)(NC(=O)CNC(=O)[C@@H](NC(=O)[C@H](Cc1ccccc1)NC(=O)CNC(=O)CNC(=O)[C@@H](N)Cc1ccccc1)[C@@H](C)O)C(=O)N[C@@H](CCCNC(=N)N)C(=O)N[C@@H](CCCCN)C(=O)N[C@@H](CO)C(=O)N[C@@H](C)C(=O)N[C@@H](CCCNC(=N)N)C(=O)N[C@@H](CCCCN)C(=O)N[C@@H](CC(C)C)C(=O)N[C@@H](C)C(=O)N[C@@H](CC(N)=O)C(=O)N[C@@H](CCC(N)=O)C(N)=O [listing 1 of 3 here]		24
CCC(CC)(NC(=O)[C@H](CO)NC(=O)[C@H](CCCCN)NC(=O)[C@H](CCCNC(=N)N)NC(=O)[C@H](C)NC(=O)CNC(=O)[C@@H](NC(=O)[C@H](Cc1ccccc1)NC(=O)CNC(=O)CNC(=O)[C@@H](N)Cc1ccccc1)[C@@H](C)O)C(=O)N[C@@H](CCCNC(=N)N)C(=O)N[C@@H](CCCCN)C(=O)N[C@@H](CC(C)C)C(=O)N[C@@H](C)C(=O)N[C@@H](CC(N)=O)C(=O)N[C@@H](CCC(N)=O)C(N)=O	87%	17.8
CC(C)C[C@H](NC(=O)[C@H](CCCCN)NC(=O)[C@H](CCCNC(=N)N)NC(=O)C(C)(NC(=O)[C@H](CO)NC(=O)[C@H](CCCCN)NC(=O)[C@H](CCCNC(=N)N)NC(=O)[C@H](C)NC(=O)CNC(=O)[C@@H](NC(=O)[C@H](Cc1ccccc1)NC(=O)CNC(=O)CNC(=O)[C@@H](N)Cc1ccccc1)[C@@H](C)O)C(C)C)C(=O)N[C@@H](C)C(=O)N[C@@H](CC(N)=O)C(=O)N[C@@H](CCC(N)=O)C(N)=O (some centres undefined) [listing 2 of 3 here]	93% and 86%	
CC[C@](C)(NC(=O)CNC(=O)[C@@H](NC(=O)[C@H](Cc1ccccc1)NC(=O)CNC(=O)CNC(=O)[C@@H](N)Cc1ccccc1)[C@@H](C)O)C(=O)N[C@@H](CCCNC(=N)N)C(=O)N[C@@H](CCCCN)C(=O)N[C@@H](CO)C(=O)N[C@@H](C)C(=O)N[C@@H](CCCNC(=N)N)C(=O)N[C@@H](CCCCN)C(=O)N[C@@H](CC(C)C)C(=O)N[C@@H](C)C(=O)N[C@@H](CC(N)=O)C(=O)N[C@@H](CCC(N)=O)C(N)=O [listing 2 of 3 here]	91% and 88%	
CC(C)C[C@H](NC(=O)[C@H](CCCCN)NC(=O)[C@H](CCCNC(=N)N)NC(=O)C(C)(NC(=O)[C@H](CO)NC(=O)[C@H](CCCCN)NC(=O)[C@H](CCCNC(=N)N)NC(=O)[C@H](C)NC(=O)CNC(=O)[C@@H](NC(=O)[C@H](Cc1ccccc1)NC(=O)CNC(=O)CNC(=O)[C@@H](N)Cc1ccccc1)[C@@H](C)O)C(C)C)C(=O)N[C@@H](C)C(=O)N[C@@H](CC(N)=O)C(=O)N[C@@H](CCC(N)=O)C(N)=O (some centres undefined) [listing 3 of 3 here]		19.5
CC[C@](C)(NC(=O)CNC(=O)[C@@H](NC(=O)[C@H](Cc1ccccc1)NC(=O)CNC(=O)CNC(=O)[C@@H](N)Cc1ccccc1)[C@@H](C)O)C(=O)N[C@@H](CCCNC(=N)N)C(=O)N[C@@H](CCCCN)C(=O)N[C@@H](CO)C(=O)N[C@@H](C)C(=O)N[C@@H](CCCNC(=N)N)C(=O)N[C@@H](CCCCN)C(=O)N[C@@H](CC(C)C)C(=O)N[C@@H](C)C(=O)N[C@@H](CC(N)=O)C(=O)N[C@@H](CCC(N)=O)C(N)=O [listing 3 of 3 here]		14.8
CC(C)C[C@H](NC(=O)[C@H](CCCCN)NC(=O)[C@H](CCCNC(=N)N)NC(=O)[C@H](C)NC(=O)[C@H](CO)NC(=O)[C@H](CCCCN)NC(=O)[C@H](CCCNC(=N)N)NC(=O)C(C)(NC(=O)CNC(=O)[C@@H](NC(=O)[C@H](Cc1ccccc1)NC(=O)CNC(=O)CNC(=O)[C@@H](N)Cc1ccccc1)[C@@H](C)O)C(C)C)C(=O)N[C@@H](C)C(=O)N[C@@H](CC(N)=O)C(=O)N[C@@H](CCC(N)=O)C(N)=O (some centres undefined) [listing 2 of 2 here]		27.5
CC(C)C[C@H](NC(=O)[C@H](CCCCN)NC(=O)[C@H](CCCNC(=N)N)NC(=O)[C@H](C)NC(=O)[C@H](CO)NC(=O)[C@H](CCCCN)NC(=O)[C@H](CCCNC(=N)N)NC(=O)C(C)(CC(C)C)NC(=O)CNC(=O)[C@@H](NC(=O)[C@H](Cc1ccccc1)NC(=O)CNC(=O)CNC(=O)[C@@H](N)Cc1ccccc1)[C@H](C)O)C(=O)N[C@@H](C)C(=O)N[C@@H](CC(N)=O)C(=O)N[C@@H](CCC(N)=O)C(N)=O (some centres undefined)	84% and 95%	
